This note sets out measurements from PubChem BioAssay AID1996.

In brackets after ≈: the same amount, converted by molar mass.

For the data set the following is noted: buffer; pH 7.4; 200.0 µM.
In the case of `CC1CC(=O)C2=C(C1)Nc1nc3ccccc3n1C2c1cccnc1` (stereo unspecified), the kinetic solubility was 3.3 µg/mL (≈ 9.99 µM).

Compound `CCCc1ccc(OCCNC(=O)c2ccco2)cc1` showed a solubility (kinetic) of more than 41 µg/mL.

As for `Cc1ccc(NC(=O)C2CCCN2C(=O)OC(C)(C)C)cc1C` (stereo unspecified), the kinetic solubility was more than 47.8 µg/mL.

Take `Cc1cc(SCc2cccc([N+](=O)[O-])c2)nc(=O)[nH]1`: the solubility (kinetic) is 35.3 µg/mL (≈ 127 µM).

With `Cc1cc(C(=O)OCC(=O)NCCN2C(=O)CSC2=O)ccc1[N+](=O)[O-]`, the kinetic solubility was more than 57.2 µg/mL.

In turn, `COc1ccc(C(=O)NCCc2c[nH]c3ccccc23)cc1[N+](=O)[O-]` had a kinetic solubility of 10.8 µg/mL (≈ 31.8 µM).

`C=CCN1C(=O)C2(OCCCO2)c2c(C)ccc(C)c21` registered a kinetic solubility of 28.2 µg/mL (≈ 103 µM). Against the preceding compound, the solubility kinetic is about 2.6-fold higher.

Compound `CC(C)(C)C(=O)/C=C1\SCC(=O)N1CC(=O)N1CCN(c2ccccc2)CC1` gave a kinetic solubility of 33.7 µg/mL (≈ 83.9 µM).

`C/C(=N\NC(N)=S)c1cccnc1` showed a kinetic solubility of more than 29.1 µg/mL.

Compound `Cc1cc2cc(CNC(=O)Cc3ccc([N+](=O)[O-])cc3)ccc2[nH]1` registered a kinetic solubility of 6.9 µg/mL (≈ 21.3 µM).

Compound `CNC(=S)N(CCc1c(C)[nH]c2ccc(F)cc12)Cc1ccco1` registered a solubility (kinetic) of 3 µg/mL (≈ 8.68 µM).

As for `COc1ccc(NC(=O)c2ccc(F)c(F)c2)c2ccccc12`, the solubility (kinetic) is less than 0.7 µg/mL.

In the case of `Cc1nc(-c2ccc3c(c2)CCC(=O)N3)cs1`, the solubility (kinetic) was 31.7 µg/mL (≈ 130 µM).

As to `Cc1ccc2[nH]c3c(c2c1)CN(C(=O)CN1CCCCC1)CC3`, the solubility (kinetic) is 41.8 µg/mL (≈ 134 µM).

As for `NC(=S)c1c(Cl)cc(C(F)(F)F)cc1Cl`, the kinetic solubility is 40.6 µg/mL (≈ 148 µM).

As for `COc1ccc(CC(=O)NC2CC2)cc1OC`, the solubility (kinetic) was more than 35.3 µg/mL.

Compound `COc1ccc(C2CC(=O)C=C(NCc3ccccc3)C2)cc1` (stereo unspecified) gave a solubility (kinetic) of 14.2 µg/mL (≈ 46.2 µM).

In turn, `CN(c1ccccc1)S(=O)(=O)c1cccc(NC(=O)c2ccc(Cl)c([N+](=O)[O-])c2)c1` registered a solubility (kinetic) of 1.8 µg/mL (≈ 4.04 µM).

In the case of `NNC(=O)c1ccc(N2CCCCCC2)c([N+](=O)[O-])c1`, the kinetic solubility is more than 41.7 µg/mL.

Consider `CCn1c(SCC(=O)NC2CC2)nnc1-c1ccccn1`, for which the solubility (kinetic) is more than 45.5 µg/mL.

In the case of `O=C(O)c1ccc2c(=O)n3c(nc2c1)/C(=C/c1ccc(F)cc1)CC3`, the kinetic solubility was more than 50.4 µg/mL.

In the case of `Cc1ccc(C)c(NC(=S)N(C)C)c1`, the kinetic solubility was more than 31.2 µg/mL.

Compound `Cc1nnc(SCC(=O)NC(=O)NCc2ccco2)s1` showed a solubility (kinetic) of more than 46.9 µg/mL.

Consider `O=C(NCCCCCCNC(=O)c1ccncc1)c1ccncc1`, for which the solubility (kinetic) is more than 49 µg/mL.

`COCC(C)NC(=O)c1cc(OC)cc(OC)c1` (stereo unspecified) displayed a kinetic solubility of more than 38 µg/mL.

In turn, `Cc1cc(C)c2cc(C(=O)Nc3ccccc3)[nH]c2c1` displayed a kinetic solubility of 1.2 µg/mL (≈ 4.54 µM).

`O=C(NCCNc1ccc([N+](=O)[O-])cc1)c1cc(F)c(F)cc1Cl` returned a kinetic solubility of 2 µg/mL (≈ 5.62 µM).

`O=C(NCCc1ccc(F)cc1)c1cccc(NC(=O)c2ccccc2)c1` gave a solubility (kinetic) of 6 µg/mL (≈ 16.6 µM). Against the preceding compound, the solubility kinetic is about 3-fold higher.

In turn, `OCCCN=C1CCCc2c1[nH]c1ccc(Cl)cc21` registered a solubility (kinetic) of 14.4 µg/mL (≈ 52 µM).

The compound `COc1ccc(C(=O)NC2CCN(C(=O)Nc3ccc(F)cc3)CC2)cc1` registered a kinetic solubility of 0.9 µg/mL (≈ 2.42 µM). Compared with the last compound, the solubility kinetic is about 16-fold lower.

Consider `CC1CCCC(NC(=O)CN2C(=O)NC(C)(c3cc(F)ccc3F)C2=O)C1C` (stereo unspecified), for which the kinetic solubility is more than 59 µg/mL.

Consider `Cc1cc(Cl)ccc1NC(=O)c1ccc2c(c1)OCO2`, for which the solubility (kinetic) came out at 2.5 µg/mL (≈ 8.63 µM).

For `COc1cc2c(C(=O)O)c(C)n(-c3ccccc3)c2c2ccccc12`, the kinetic solubility came to 1.3 µg/mL (≈ 3.92 µM).

On to `S=c1nc(NCc2ccc3c(c2)OCO3)c2ccccc2[nH]1`, for which the kinetic solubility amounted to 0.6 µg/mL (≈ 1.93 µM).

On to `O=C(NCC1CCCO1)c1cc2c(s1)CCC2` (stereo unspecified), for which the kinetic solubility was more than 37.7 µg/mL.

Turning to `O=[N+]([O-])c1cccc(S(=O)(=O)c2cccc([N+](=O)[O-])c2)c1`, the kinetic solubility was found to be 0.4 µg/mL (≈ 1.3 µM).

The compound `Cc1ccc(C)c(NC(=O)CN(C)C(C)C(=O)N2CCCC2)c1` (stereo unspecified) registered a kinetic solubility of 42.1 µg/mL (≈ 133 µM). This solubility kinetic is about 110-fold higher than that of the compound before.

`COc1ccc(OC)c(/C=C/C(=O)NC2=NCCS2)c1` registered a solubility (kinetic) of 4 µg/mL (≈ 13.7 µM).

Consider `O=C(COC(=O)c1cccc(Br)c1)NCC1CCCO1` (stereo unspecified), for which the solubility (kinetic) was more than 51.3 µg/mL.

Compound `COc1ccc(/C=C2\N=C(C)OC2=O)cc1OC` yielded a solubility (kinetic) of 36.9 µg/mL (≈ 149 µM).

The compound `NC(=O)C1CCN(S(=O)(=O)Cc2ccccc2Cl)CC1` showed a kinetic solubility of more than 47.5 µg/mL.

`CSc1nc(SCCN(C)C)c2c3c(sc2n1)COC(C)(C)C3` returned a solubility (kinetic) of 37.4 µg/mL (≈ 101 µM).

Regarding `COC(=O)c1ccc(N2CCN(C)CC2)c(NC(=O)c2cccs2)c1`, the solubility (kinetic) is more than 53.9 µg/mL.

Consider `O=C(Nc1cc(S(=O)(=O)N2CCOCC2)ccc1N1CCOCC1)c1ccccc1Cl`, for which the kinetic solubility is more than 69.9 µg/mL.

Compound `Cc1nnc(Cn2cnc3c2c(=O)n(C)c(=O)n3C)o1` returned a kinetic solubility of more than 41.4 µg/mL.

As to `Cc1nc2ccc(NS(=O)(=O)c3ccc(F)cc3)cc2s1`, the kinetic solubility came to 44.3 µg/mL (≈ 137 µM).

As to `CN(Cc1ccccc1)S(=O)(=O)c1ccc(Cl)c(C(=O)N2CCC(C(N)=O)CC2)c1`, the kinetic solubility is more than 67.5 µg/mL.

Take `OC(C[n+]1ccccc1)c1ccccc1.[Br-]` (stereo unspecified): the kinetic solubility is more than 42 µg/mL.

In turn, `COC(=O)[C@H](Cc1ccccc1)NC(=O)Nc1ccc(OC)cc1` displayed a kinetic solubility of 47 µg/mL (≈ 143 µM).

Compound `Oc1ccc(CCC2CCCCN2Cc2nc(C3CC3)no2)cc1` (stereo unspecified) showed a solubility (kinetic) of more than 49.1 µg/mL.

`COc1ccc(NC(=O)COc2ccc(/C=N/O)cc2OC)cc1` showed a solubility (kinetic) of more than 49.6 µg/mL.
